# Results published in the supplement of paper PMC10307832.
# Columns and labels:
# Test in all cases: relative viability (nuclei count vs DMSO), 5 days (fraction); higher = more cells survive
# [1] = compound: COC1=CC=C(C=C1)COC2=C(C=C(C=C2)CC3=CN=C(N=C3N)N)OC [GW-2580] + Nc1nc2[nH]cc(CCc3ccc(C(=O)N[C@@H](CCC(=O)O)C(=O)O)cc3)c2c(=O)[nH]1 [Pemetrexed] (partner 0.2 µM)
# How it was run: (§1)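 Lung cancer cell lines in 1536-well plates were dosed by pin tool the day after seeding, either with one drug alone or with a fixed anchor-drug dose plus five library-drug doses (not always all listed) in √10 steps. After 5 days, cells were fixed and their nuclei stained in one step (final 0.05% Triton X-100, 1% formaldehyde, 1 ug/ml Hoechst), then counted on 4× images. Relative viability is the nuclei count in treated wells divided by that in vehicle wells. Values are medians of duplicate plates.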
# [2] = compound: COC1=CC=C(C=C1)COC2=C(C=C(C=C2)CC3=CN=C(N=C3N)N)OC [GW-2580] + Cc1nc(Nc2ncc(C(=O)Nc3c(C)cccc3Cl)s2)cc(N2CCN(CCO)CC2)n1 [Dasatinib] (partner 0.075 µM)
# How it was run: as §1
# [3] = compound: Cc1cnc(Nc2ccc(OCCN3CCCC3)cc2)nc1Nc1cccc(S(=O)(=O)NC(C)(C)C)c1 [Fedratinib] + CS(=O)(=O)CCNCc1ccc(-c2ccc3ncnc(Nc4ccc(OCc5cccc(F)c5)c(Cl)c4)c3c2)o1 [Lapatinib] (partner 2 µM)
# How it was run: as §1
# [4] = compound: COC1=CC=C(C=C1)COC2=C(C=C(C=C2)CC3=CN=C(N=C3N)N)OC [GW-2580] + Cc1nc(NC(=O)N2CCC[C@H]2C(N)=O)sc1-c1ccnc(C(C)(C)C(F)(F)F)c1 [Alpelisib] (partner 2 µM)
# How it was run: as §1
# [5] = compound: COC1=CC=C(C=C1)COC2=C(C=C(C=C2)CC3=CN=C(N=C3N)N)OC [GW-2580] + C[C@]1(O)C[C@@H](c2nc(-c3ccc4ccc(-c5ccccc5)nc4c3)c3c(N)nccn32)C1 [Linsitinib] (partner 1 µM)
# How it was run: as §1
Cell Line,relative viability ([1]; first compound 0.08 µM),relative viability ([1]; first compound 2.53 µM),relative viability ([1]; first compound 8 µM),relative viability ([2]; first compound 0.08 µM),relative viability ([2]; first compound 0.8 µM),relative viability ([2]; first compound 2.53 µM),relative viability ([2]; first compound 8 µM),relative viability ([3]; first compound 0.1 µM),relative viability ([3]; first compound 0.3162 µM),relative viability ([3]; first compound 1 µM),relative viability ([4]; first compound 0.08 µM),relative viability ([4]; first compound 0.8 µM),relative viability ([4]; first compound 2.53 µM),relative viability ([4]; first compound 8 µM),relative viability ([1]; first compound 0.8 µM),relative viability ([5]; first compound 0.08 µM),relative viability ([5]; first compound 0.8 µM),relative viability ([5]; first compound 2.53 µM),relative viability ([5]; first compound 8 µM)
NCI-H1648,0.778,0.609,0.611,–,–,–,–,–,–,–,–,–,–,–,–,–,–,–,–
SK-MES-1,1.01,0.878,0.824,0.444,0.477,0.304,0.292,0.469,0.481,0.458,1.15,0.907,0.94,0.885,1.04,1.12,1.14,1.01,1.09
HCC-366,0.194,0.16,0.121,0.711,0.759,0.603,0.563,1.34,0.989,0.304,0.367,0.575,0.43,0.355,0.145,0.51,0.678,0.496,0.882
201T,0.371,0.329,0.346,0.637,0.544,0.509,0.532,1.01,0.944,0.976,1.02,1.1,1.01,1.01,0.351,1.06,1.14,1.14,1.06
HCC-827,0.242,0.236,0.276,0.309,0.413,0.283,0.245,0.187,0.181,0.22,1.15,0.923,0.902,0.915,0.259,0.975,1.03,1.01,0.961
NCI-H647,0.16,0.16,0.229,0.189,0.16,0.11,0.224,1.22,1.12,0.173,1.44,1.45,1.04,1.13,0.185,1.39,1.39,1.09,1.33
NCI-H2023,0.344,0.238,0.205,0.636,0.652,0.542,0.587,0.897,0.75,0.083,0.611,0.625,0.513,0.604,0.279,0.643,0.864,0.654,0.67
NCI-H520,0.7,0.598,0.554,0.203,0.238,0.204,0.252,0.86,0.717,0.18,1.02,0.988,0.837,0.966,0.579,1.03,1.18,1.16,0.985
RERF-LC-KJ,0.491,0.504,0.523,0.896,0.893,0.797,0.71,0.879,0.844,0.838,0.771,0.803,0.732,0.793,0.44,0.946,0.939,0.816,0.815
A-427,0.936,0.842,0.76,0.758,0.794,0.511,0.735,1.06,0.984,0.591,1.08,1.12,1.02,1.09,1.19,1.18,1.16,1.01,1.08
NCI-H441,0.273,0.234,0.262,0.679,0.764,0.582,0.534,–,–,–,0.972,0.853,0.718,0.699,0.26,0.425,0.763,0.351,0.625
NCI-H1703,–,–,–,–,–,–,–,0.675,0.834,0.667,0.308,0.334,0.323,0.331,–,0.879,1.1,0.712,0.716
NCI-H1792,0.843,0.688,0.644,1.48,0.82,–,1.01,0.879,0.905,0.827,0.552,0.809,0.288,0.907,0.773,0.684,0.569,0.263,0.592
Calu-6,–,–,–,–,–,–,–,1.29,1,0.945,1.08,0.964,0.902,1.07,–,1.11,0.938,0.913,1.02
SK-LU-1,1.09,0.878,0.996,0.178,0.207,0.149,0.167,0.851,0.871,0.578,0.936,1.09,0.85,1.18,1.05,1.39,1.23,1.04,1.16
PC-3 [JPC-3],0.908,0.861,0.658,0.986,1.14,0.845,1.03,0.422,0.446,0.412,1.05,1.09,0.998,1.01,1.39,0.96,0.995,0.966,0.967
EMC-BAC-2,0.503,–,0.502,0.317,0.308,0.264,0.316,1,0.901,0.909,0.834,0.777,0.686,0.787,0.43,0.839,0.876,0.727,0.875
LK-2,0.287,0.245,0.295,0.288,0.281,0.282,0.295,0.798,0.828,0.638,1.21,1.21,0.849,1.38,0.283,0.558,0.573,0.23,0.534

Cell Line,relative viability ([1]; first compound 0.08 µM),relative viability ([1]; first compound 2.53 µM),relative viability ([1]; first compound 8 µM),relative viability ([2]; first compound 0.08 µM),relative viability ([2]; first compound 0.8 µM),relative viability ([2]; first compound 2.53 µM),relative viability ([2]; first compound 8 µM),relative viability ([3]; first compound 0.1 µM),relative viability ([3]; first compound 0.3162 µM),relative viability ([3]; first compound 1 µM),relative viability ([4]; first compound 0.08 µM),relative viability ([4]; first compound 0.8 µM),relative viability ([4]; first compound 2.53 µM),relative viability ([4]; first compound 8 µM),relative viability ([1]; first compound 0.8 µM),relative viability ([5]; first compound 0.08 µM),relative viability ([5]; first compound 0.8 µM),relative viability ([5]; first compound 2.53 µM),relative viability ([5]; first compound 8 µM)
NCI-H2126,0.664,0.63,0.612,0.599,0.736,0.627,0.522,0.761,0.772,0.689,0.757,0.772,0.719,0.714,0.709,0.739,0.731,0.653,0.743
NCI-H3122,0.212,0.203,0.207,0.947,1.01,0.655,0.812,1.04,0.966,0.555,0.85,0.878,0.671,0.758,0.211,0.993,1.13,1.16,1.05
HCC-44,0.727,0.649,0.666,–,–,–,–,1.04,0.911,0.901,0.863,0.759,0.691,0.775,0.638,0.736,0.759,0.628,0.687
NCI-H1299,–,–,–,–,–,–,–,0.963,0.96,0.983,1.2,1.04,1.04,1.07,–,1.09,0.969,0.952,0.907
NCI-H727,–,–,–,0.414,0.409,0.44,0.299,0.783,0.846,0.211,0.664,0.594,0.615,0.453,–,0.241,0.298,0.226,0.284
LCLC-103H,0.452,0.447,0.5,0.451,0.496,0.511,0.484,–,–,–,0.928,1.11,0.961,0.954,0.416,1.07,1.45,1.08,1.09
ABC-1,–,–,–,0.559,0.675,0.55,0.534,1.28,1.16,1.46,1.36,0.944,0.93,0.891,–,0.791,0.816,0.883,0.718
NCI-H1650,0.468,0.418,0.371,0.339,0.399,0.326,0.296,0.548,0.925,0.183,–,–,–,–,0.391,–,–,–,–
ChaGo-K-1,0.274,0.267,0.262,0.663,0.552,0.605,0.587,–,–,–,–,–,–,–,0.256,–,–,–,–
SW 900,0.509,0.495,0.547,0.787,0.505,0.802,0.585,–,–,–,–,–,–,–,0.511,–,–,–,–
A549,–,–,–,–,–,–,–,1.16,0.907,0.875,0.723,0.688,0.721,0.764,–,0.678,0.701,0.501,0.602
NCI-H2342,0.705,0.682,0.733,0.329,0.327,0.297,0.332,–,–,–,–,–,–,–,0.828,–,–,–,–
NCI-H2170,0.26,0.264,0.251,0.752,0.769,0.587,0.672,0.255,0.262,0.258,0.892,0.842,0.741,0.902,0.261,–,–,–,–
NCI-H1623,–,–,–,0.46,0.645,0.447,0.583,–,–,–,–,–,–,–,–,–,–,–,–
NCI-H522,1.11,0.967,0.994,0.95,0.787,0.795,1.02,–,–,–,–,–,–,–,0.97,–,–,–,–
IA-LM,–,–,–,–,–,–,–,0.873,0.632,0.46,1.11,0.725,0.656,0.883,–,0.693,1.29,0.55,0.319
EBC-1,–,–,–,–,–,–,–,0.175,0.193,0.177,0.91,1,0.746,0.887,–,1.27,0.991,0.871,0.743
